Here are results for nine compounds from patent US9868766B2, “Peptides as oxytocin agonists” (Hoffmann-La Roche Inc., priority 2012, dated 2018).

One may read the pEC50 as −log10 of the EC50, conventionally taken in molar units.

Assay type in all cases: cell-based
In assay [1] the target is T1, human Oxytocin (OTR) receptor (Homo sapiens, UniProt P30559).
T1 construct: expressed in transfected cells
T1 sequence (P30559 1-389): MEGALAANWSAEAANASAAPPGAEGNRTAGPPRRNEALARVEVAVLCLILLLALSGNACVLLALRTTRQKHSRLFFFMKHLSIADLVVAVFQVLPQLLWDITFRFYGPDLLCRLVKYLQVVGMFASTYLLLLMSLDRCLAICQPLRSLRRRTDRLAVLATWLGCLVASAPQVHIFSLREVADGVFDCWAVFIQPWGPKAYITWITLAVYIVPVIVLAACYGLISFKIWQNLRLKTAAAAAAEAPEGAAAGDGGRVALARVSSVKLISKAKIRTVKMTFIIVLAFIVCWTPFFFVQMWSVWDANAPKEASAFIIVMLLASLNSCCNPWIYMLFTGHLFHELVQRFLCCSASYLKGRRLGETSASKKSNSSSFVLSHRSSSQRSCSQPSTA
The assay is described as follows: Calcium flux assay (FLIPR), agonist mode, CHO cells expressing human OTR. Conditions: for pEC50: CHO cells stably expressing human OTR, calcium flux, read-out: hOT EC50; for Emax: CHO, read-out: hOT efficacy (%); for Emax / hOT efficacy (%): maximum response normalized to endogenous full agonist = 100%. In short, it runs like this: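 Monoclonal CHO cells stably expressing the receptor were loaded with 2 μM Fluo-4-AM in HBSS with 20 mM HEPES (pH 7.3) and 2.5 mM probenecid. Compound was added 10 s into reading and fluorescence followed for 5 min.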
For orientation: Calcium assays in cells follow changes in intracellular calcium, usually with a dye or a luminescent sensor.

Another assay deals with T2, human V1a receptor (Homo sapiens, UniProt P37288).
T2 construct: expressed in transfected cells
The assay is described as follows: Calcium flux assay (FLIPR), agonist mode, CHO cells expressing human V1a. The note with it: CHO cells stably expressing human V1a; calcium flux; read-out: hV1a EC50. From the text:
(§1) Chines Hamster Ovary (CHO) cells were transfected with expression plasmids encoding either the human V1a, the human Oxytocin (OTR) or the humanV2 receptor, the later in combination with the chimeric Gqs5 G protein to redirect the signal to Calcium flux. Stable cells were cloned by limiting dilution to yield monoclonal cell lines expressing either human V1a, human V2+Gqs5 or human OTR receptors and selected based on functional responses detected on a fluorometric imaging plate reader (FLIPR) detecting Calcium flux in the cell after receptor activation. The stable cell lines were grown in F-12 K Nutrient Mixture (Kaighns Modification), containing 10% foetal bovine serum (FBS), 1% penicillin-streptomycin, 1% L-glutamate, 200 ug/ml Geneticin at 37° C. in a 10% CO2 incubator at 95% humidity.
(§2) On the afternoon before the assay, cells were plated at a density of 50,000 cells/well into black 96 well plates with clear bottoms to allow cell inspection and fluorescence measurements from the bottom of each well. The density of cells was sufficient to yield a confluent monolayer the next day. Hanks balanced salt solution, without phenol red, containing 20 mM HEPES (pH 7.3) and 2.5 mM probenecid (assay buffer) was prepared fresh for each experiment. Compound dilutions were made using a Beckman Biomek 2000 laboratory automation workstation, in assay buffer containing 1% DMSO. The dye-loading buffer consisted of a final concentration of 2 μM Fluo-4-AM (dissolved in DMSO and pluronic acid) in assay buffer. The existing culture media was removed from the wells and 100 μl of the dye-loading buffer was added to each well and incubated for approximately 60 min at 37° C. in a 5% CO2 incubator at 95% humidity. Once dye-loaded, the cells were washed thoroughly on an Embla cell washer with the assay buffer to remove any unincorporated dye. Exactly 100 μl assay buffer was left in each well.
(§3) Each 96 well plate containing dye-loaded cells was placed into the FLIPR machine and the laser intensity set to a suitable level to detect low basal fluorescence. To test compounds as agonists, 25 μl diluted compound was added to the plate 10 seconds into the fluorescent measurements and fluorescent response was recorded for 5 minutes. The fluorescence data was normalized to the endogenous full agonist dose-response set at 100% for the maximum response and 0% for the minimum. Each agonist concentration-response curve was constructed using a four parameter logistic equation with Microsoft Excel XLFit as follows: Y=Minimum+((Maximum−Minimum)/(1+10^(Log EC50-X)nH)), where y is the % normalized fluorescence, minimum is the minimum y, maximum is the maximum y, log EC50 is the log10 concentration which produces 50% of the maximum induced fluorescence, x is the log10 of the concentration of the agonist compound and H is the slope of the curve (the Hill Coefficient). The maximum value gives the efficacy of the agonist test compound in percentage. The concentration of agonist that produced a half-maximal response is represented by the EC50 value, the logarithm of which yielded the pEC50 value.

Another assay has as its target T3, human V2 receptor (Homo sapiens, UniProt P30518).
T3 construct: expressed in transfected cells
Put plainly: Calcium flux assay (FLIPR), agonist mode, CHO cells expressing human V2 + Gqs5. The note with it: for pEC50: CHO cells stably expressing human V2 + chimeric Gqs5, calcium flux, read-out: hV2 EC50; for Emax: CHO, read-out: hV2 efficacy (%).
Text: as §1, §2, §3

Setting [2] is: maximum response normalized to endogenous full agonist = 100%.

Structures are written as SMILES. pEC50: −log10 of the molar value. Positions of bridges follow the written chain, without caps; N, C: chain ends. Non-standard residues stand in square brackets, D forms with d. Residues, ends and D or L forms follow the SMILES beside them. aThr = C[C@H](O)[C@H](N)C(=O)O; Tle = CC(C)(C)[C@H](N)C(=O)O; Nle = CCCC[C@H](N)C(=O)O; Sar = CNCC(=O)O

T2 sequence (P37288 whole entry): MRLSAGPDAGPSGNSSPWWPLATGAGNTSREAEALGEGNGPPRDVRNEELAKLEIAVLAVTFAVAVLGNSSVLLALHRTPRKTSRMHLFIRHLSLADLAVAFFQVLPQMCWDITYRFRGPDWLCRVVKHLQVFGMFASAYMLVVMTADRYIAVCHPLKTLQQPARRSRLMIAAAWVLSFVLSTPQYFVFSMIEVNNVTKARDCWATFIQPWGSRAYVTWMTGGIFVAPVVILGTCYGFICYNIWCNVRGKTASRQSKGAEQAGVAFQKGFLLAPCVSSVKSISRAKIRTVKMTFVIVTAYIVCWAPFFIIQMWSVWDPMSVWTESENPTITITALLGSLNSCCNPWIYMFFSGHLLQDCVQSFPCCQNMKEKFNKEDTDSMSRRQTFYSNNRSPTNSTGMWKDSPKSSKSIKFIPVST
T3 sequence (P30518 whole entry): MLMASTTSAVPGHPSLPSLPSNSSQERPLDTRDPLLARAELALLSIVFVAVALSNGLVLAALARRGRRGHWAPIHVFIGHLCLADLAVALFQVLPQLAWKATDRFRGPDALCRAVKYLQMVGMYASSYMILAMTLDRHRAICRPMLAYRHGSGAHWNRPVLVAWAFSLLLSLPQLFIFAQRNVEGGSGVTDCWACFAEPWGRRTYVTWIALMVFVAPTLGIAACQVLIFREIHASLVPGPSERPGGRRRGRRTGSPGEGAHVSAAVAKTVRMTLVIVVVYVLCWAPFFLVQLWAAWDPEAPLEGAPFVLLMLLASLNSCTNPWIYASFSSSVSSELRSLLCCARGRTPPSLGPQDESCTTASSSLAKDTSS

Regarding `CC[C@H](C)[C@@H]1NC(=O)[C@H](Cc2ccc(O)cc2)NC(=O)CNC(=O)CC[C@@H](C(=O)N(C)CC(=O)N[C@@H](CCC(N)=O)C(=O)NCC(N)=O)NC(=O)[C@H](CC(N)=O)NC(=O)[C@H](CCC(N)=O)NC1=O` [Example 31] (GYIQNE[Sar]QG-NH2; lactam N-6), the pEC50 in assay [1] was 8.05; at human V1a receptor, under 5.00; at human V2 receptor, 5.57. Further, the Emax in assay [1] was 131%; at human V2 receptor (setting [2]), 91%.

Take `CC[C@H](C)[C@H](NC(=O)CN(C)C(=O)[C@@H]1CCC(=O)NCC(=O)N[C@@H](Cc2ccc(O)cc2)C(=O)N[C@@H]([C@@H](C)CC)C(=O)N[C@@H](CCC(N)=O)C(=O)N[C@@H](CC(N)=O)C(=O)N1)C(=O)NCC(N)=O` [Example 33] (GYIQNE[Sar]IG-NH2; lactam N-6): the pEC50 in assay [1] was 8.70; at human V1a receptor it was under 4.57; on human V2 receptor, 5.42. The Emax in assay [1] was determined as 119%; at human V2 receptor (setting [2]), 101%.

`CC[C@H](C)[C@@H]1NC(=O)[C@H](Cc2ccc(O)cc2)NC(=O)CNC(=O)CC[C@@H](C(=O)N(C)CC(=O)N[C@@H](CCC(=O)O)C(=O)NCC(N)=O)NC(=O)[C@H](CC(N)=O)NC(=O)[C@H](CCC(N)=O)NC1=O` [Example 29] (GYIQNE[Sar]EG-NH2; lactam N-6): the pEC50 in assay [1] was 7.49; on human V1a receptor, under 5.00; on human V2 receptor, 4.97. For the same compound, the “hOT efficacy (%)” value in assay [1] is on record as 130%. In addition, the Emax at human V2 receptor (setting [2]) was found to be 39%.

`CCCC[C@H](NC(=O)CN(C)C(=O)[C@@H]1CCC(=O)NCC(=O)N[C@@H](Cc2ccc(O)cc2)C(=O)N[C@@H]([C@@H](C)CC)C(=O)N[C@@H](CCC(N)=O)C(=O)N[C@@H](CC(N)=O)C(=O)N1)C(=O)NCC(N)=O` [Example 40] (GYIQNE[Sar][Nle]G-NH2; lactam N-6): the pEC50 is 9.40 in assay [1], under 4.57 on human V1a receptor and 5.66 on human V2 receptor. Besides, the Emax in assay [1] is 124%; on human V2 receptor (setting [2]), 117%.

On to `CC[C@H](C)[C@@H]1NC(=O)[C@H](Cc2ccc(O)cc2)NC(=O)CNC(=O)CC[C@@H](C(=O)N(C)CC(=O)N[C@H](C(=O)NCC(N)=O)[C@H](C)O)NC(=O)[C@H](CC(N)=O)NC(=O)[C@H](CCC(N)=O)NC1=O` [Example 25] (GYIQNE[Sar][aThr]G-NH2; lactam N-6), for which the pEC50 is 8.52 in assay [1], under 5.00 at human V1a receptor and 5.42 at human V2 receptor. The “hOT efficacy (%)” value in assay [1] is 125%. Also, at human V2 receptor (setting [2]), the Emax was 103%.

Consider `CC[C@H](C)[C@@H]1NC(=O)[C@H](Cc2ccc(O)cc2)NC(=O)CNC(=O)CC[C@@H](C(=O)N(C)CC(=O)N[C@@H](Cc2c[nH]cn2)C(=O)NCC(N)=O)NC(=O)[C@H](CC(N)=O)NC(=O)[C@H](CCC(N)=O)NC1=O` [Example 34] (GYIQNE[Sar]HG-NH2; lactam N-6), for which the figures for the pEC50 (in assay [1]; at human V1a receptor; on human V2 receptor) were 8.00, under 5.00 and 6.84, respectively. Moreover, the “hOT efficacy (%)” value in assay [1] is 136%. Besides, at human V2 receptor (setting [2]), the “hV2 efficacy (%)” value is 120%.

For the compound `CC[C@H](C)[C@@H]1NC(=O)[C@H](Cc2ccc(O)cc2)NC(=O)CNC(=O)CC[C@@H](C(=O)N(C)CC(=O)N[C@H](C(=O)NCC(N)=O)C(C)C)NC(=O)[C@H](CC(N)=O)NC(=O)[C@H](CCC(N)=O)NC1=O` [Example 26] (GYIQNE[Sar]VG-NH2; lactam N-6), the pEC50 in assay [1] was 8.70; at human V1a receptor it was under 5.00; at human V2 receptor, 5.58. In addition, the “hOT efficacy (%)” value in assay [1] is listed as 124%. The Emax at human V2 receptor (setting [2]) is 102%.

Consider `CC[C@H](C)[C@@H]1NC(=O)[C@H](Cc2ccc(O)cc2)NC(=O)CNC(=O)CC[C@@H](C(=O)N(C)CC(=O)N[C@H](C(=O)NCC(N)=O)C(C)(C)C)NC(=O)[C@H](CC(N)=O)NC(=O)[C@H](CCC(N)=O)NC1=O` [Example 44] (GYIQNE[Sar][Tle]G-NH2; lactam N-6), for which the pEC50 in assay [1] is 9.30; on human V1a receptor, under 4.57; on human V2 receptor it was 5.91. In addition, the Emax is 117% in assay [1] and 112% at human V2 receptor (setting [2]).

In the case of `CC[C@H](C)[C@@H]1NC(=O)[C@H](Cc2ccc(O)cc2)NC(=O)CNC(=O)CC[C@@H](C(=O)N2CCC[C@H]2C(=O)N[C@@H](CC(C)C)C(=O)NCC(N)=O)NC(=O)[C@H](CC(N)=O)NC(=O)[C@H](CCC(N)=O)NC1=O` [Example 24] (GYIQNEPLG-NH2; lactam N-6), the pEC50 in assay [1] was 8.66; on human V1a receptor it was under 4.57; on human V2 receptor, 5.60. For the same compound, the Emax in assay [1] came out at 152%; on human V2 receptor (setting [2]), 98%.
